# PubChem BioAssay AID588846 (Broad Institute, 2011)
# Activity calls are given as the source filed them. The rule behind the calls is not given here.
# Tested on: not listed separately
# Experiment: HMLE_shGFP background line viability loss – cell-based, CellTiter-Glo luminescence, dry powder, set 2, counter-screen for breast cancer stem cell killers, dose response (AID 588846)
# Details: HMLE_shGFP viability, CellTiter-Glo luminescence, 72 h; at 32 µM (top of the series)
row,SMILES,viability fraction
1,CC(C)c1ccc(/C=C/C(=O)NC2=NCCS2)cc1,14% (inactive)
2,O=C(/C=C/c1ccc(-c2ccccc2)cc1)NC1=NCCS1,13.7% (inactive)
3,O=C(NC1CCCC1)c1ccc(COc2ccccc2)o1,95.7% (inactive)
4,O=C(/C=C/c1ccc(Cl)c(Cl)c1)NC1=NCCS1,22.2% (inactive)
5,Cc1csc(NC(=O)c2ccc(CNc3ccccn3)o2)n1,80.2% (inactive)
6,Cc1ccc(/C=C/C(=O)NC2=NCCS2)cc1,88.1% (inactive)
7,CCc1ccc(/C=C/C(=O)NC2=NCCS2)cc1,92.9% (inactive)

# Tested on: HMLE_shGFP viability, CellTiter-Glo luminescence, 72 h
# Experiment: as above
# Details: not given
row,SMILES,AC50
1,Cc1csc(NC(=O)c2ccc(COc3ccccc3F)o2)n1,0.36 µM
2,Cc1csc(NC(=O)c2ccc(COc3cccc(F)c3)o2)n1,4.4 µM
3,COc1ccc(/C=C/C(=O)NC2=NCCS2)c(OC)c1,30 µM
